Experimental data taken from patent publication US20250333371A1, “COMPOUNDS” (PSYLO PTY LTD, priority 2022, published 2025).
Where two headings read alike, the source gives them in different places.

Key:
Assay type in all cases: cell-based
5-HT2A = biological target: T1, 5-HT2A (Homo sapiens, UniProt P28223); assay: FLIPR Ca2+ flux functional assay, 5-HT2A receptor (stably transfected HEK293); settings: for Emax at 10 µM: no EC50 value given, read-out: 5-HT2A Emax (%) printed as % @ 10 uM
T1 construct: host or cells: HEK293
Description: (§1) Activity at 5-HT2A, 5-HT2B and 5-HT2C receptors was determined using a FLIPR Ca^2+ flux assay at WuXi AppTec Co. Ltd. (Hong Kong) Discovery Biology Unit according to their standard protocols. Briefly, stably transfected cells expressing the receptor of interest (HEK293 for 5-HT2A and 5-HT2C; CHO-K1 for 5-HT2B) were grown and plated in a 384 well plate and incubated at 37° C. and 5% CO2 overnight. A 250 mM stock solution of probenecid in FLIPR calcium assay buffer (10 mL) was freshly prepared and combined with a fluorescent dye (Fluo-4 Direct) to give a final assay concentration of 2.5 mM. Reference compounds were 4-fold serially diluted and the screening compounds were 3-fold serially diluted in 100% DMSO for 10 points using Agilent Bravo, and 750 nL was added to a 384 well compound plate using Echo along with 30 μL assay buffer. The fluorescent dye was then added to the assay plate along with assay buffer to a final volume of 40 μL. The cell plate was incubated for 50 min at 37° C. and 5% CO2 and placed into the FLIPR Tetra along with the compound plate. 10 μL of references and compounds were then transferred from the compound plate into the cell plate and the fluorescent signal was read.

5-HT2B = biological target: T2, 5-HT2B (Homo sapiens, UniProt P41595); assay: FLIPR Ca2+ flux functional assay, 5-HT2B receptor (stably transfected CHO-K1)
T2 construct: host or cells: CHO-K1
Description: as §1

5-HT2C = biological target: T3, 5-HT2C (Homo sapiens, UniProt P28335); assay: FLIPR Ca2+ flux functional assay, 5-HT2C receptor (stably transfected HEK293)
T3 construct: host or cells: HEK293
T3 sequence (P28335 33-458): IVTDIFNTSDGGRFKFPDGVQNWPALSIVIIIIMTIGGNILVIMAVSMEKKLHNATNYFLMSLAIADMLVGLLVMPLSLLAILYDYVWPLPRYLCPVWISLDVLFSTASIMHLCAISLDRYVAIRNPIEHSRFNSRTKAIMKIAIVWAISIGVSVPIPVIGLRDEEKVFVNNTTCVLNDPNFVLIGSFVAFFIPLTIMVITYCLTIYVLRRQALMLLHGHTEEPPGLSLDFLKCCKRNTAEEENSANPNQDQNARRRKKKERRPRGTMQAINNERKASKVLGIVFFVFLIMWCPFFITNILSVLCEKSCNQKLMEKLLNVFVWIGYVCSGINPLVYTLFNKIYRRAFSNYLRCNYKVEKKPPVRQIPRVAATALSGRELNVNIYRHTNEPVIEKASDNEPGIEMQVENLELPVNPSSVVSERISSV
Description: as §1

[1] = agonist activity, Ca2+ flux, HEK293
[2] = agonist activity, Ca2+ flux, HEK293, read-out: 5-HT2A EC50
[3] = agonist activity, Ca2+ flux, CHO-K1
[4] = agonist activity, Ca2+ flux, CHO-K1, read-out: 5-HT2B EC50
[5] = agonist activity, Ca2+ flux, HEK293, read-out: 5-HT2C EC50

T2 sequence (P41595 whole entry): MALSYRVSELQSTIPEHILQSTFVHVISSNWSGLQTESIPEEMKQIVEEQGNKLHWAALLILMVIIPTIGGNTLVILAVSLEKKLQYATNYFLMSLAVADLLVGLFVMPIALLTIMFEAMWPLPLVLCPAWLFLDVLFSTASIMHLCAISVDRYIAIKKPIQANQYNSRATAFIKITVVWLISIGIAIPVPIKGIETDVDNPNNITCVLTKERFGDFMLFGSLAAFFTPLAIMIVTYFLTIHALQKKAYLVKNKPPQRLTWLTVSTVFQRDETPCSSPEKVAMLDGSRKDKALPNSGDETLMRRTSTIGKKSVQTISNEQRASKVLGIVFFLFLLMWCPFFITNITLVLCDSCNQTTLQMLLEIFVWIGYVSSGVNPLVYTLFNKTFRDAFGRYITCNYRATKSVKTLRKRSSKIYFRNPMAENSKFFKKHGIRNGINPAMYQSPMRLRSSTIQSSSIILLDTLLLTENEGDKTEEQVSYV
T1 sequence (P28223 whole entry): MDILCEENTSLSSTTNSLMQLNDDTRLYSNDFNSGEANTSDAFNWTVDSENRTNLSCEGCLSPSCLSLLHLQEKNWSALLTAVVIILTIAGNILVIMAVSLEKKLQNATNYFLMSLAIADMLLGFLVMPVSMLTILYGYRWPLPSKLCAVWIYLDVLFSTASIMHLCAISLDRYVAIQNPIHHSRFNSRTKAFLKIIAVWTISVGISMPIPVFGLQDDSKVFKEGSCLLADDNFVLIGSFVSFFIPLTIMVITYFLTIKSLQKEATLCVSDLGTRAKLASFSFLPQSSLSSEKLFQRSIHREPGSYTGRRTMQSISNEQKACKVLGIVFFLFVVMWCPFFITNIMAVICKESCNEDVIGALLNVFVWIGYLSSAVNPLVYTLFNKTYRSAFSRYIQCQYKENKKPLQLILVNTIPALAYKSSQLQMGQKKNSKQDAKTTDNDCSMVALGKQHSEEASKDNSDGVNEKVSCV

Row | Compound | Emax (5-HT2A; [1]) [%] | EC50 (5-HT2A; [2]) [nM] | EC50 (5-HT2B) [µM] | Emax (5-HT2B; [3]) [%] | EC50 (5-HT2C) [nM] | Emax (5-HT2C; [1]) [%] | EC50 (5-HT2A) [nM] | EC50 (5-HT2B; [4]) [µM] | EC50 (5-HT2C; [5]) [nM] | Emax at 10 µM (5-HT2A; HEK293) [%]
1 | COc1ccc2cccc(CCN(C)C)c2c1 [Example I-1, 2-(7-methoxynaphthalen-1-yl)-N,N-dimethylethan-1-amine] | 79 | 96 | > 10 | -0.99 | 33 | 82 | – | – | – | –
2 | CCN(CC)CCc1cccc2ccc(OC)cc12 [Example I-2, N,N-diethyl-2-(7-methoxynaphthalen-1-yl)ethan-1-amine] | 70 | – | > 10 | 12 | 733 | 88 | 360 | – | – | –
3 | CCCN(CCC)CCc1cccc2ccc(OC)cc12 [Example I-3, N-(2-(7-methoxynaphthalen-1-yl)ethyl)-N-propylpropan-1-amine] | 77 | 234 | – | 72 | – | 97 | – | 0.225 | 944 | –
4 | COc1ccc2cccc(CCN(C(C)C)C(C)C)c2c1 [Example I-4, N-isopropyl-N-(2-(7-methoxynaphthalen-1-yl)ethyl)propan-2-amine] | 111 | 446 | – | 123 | – | 99 | – | 1.2 | 1260 | –
5 | CCN(C)CCc1cccc2ccc(OC)cc12 [Example I-5, N-ethyl-2-(7-methoxynaphthalen-1-yl)-N-methylethan-1-amine] | 63 | 86 | > 10 | 17 | 43 | 94 | – | – | – | –
6 | CCCN(C)CCc1cccc2ccc(OC)cc12 [Example I-6, N-(2-(7-methoxynaphthalen-1-yl)ethyl)-N-methylpropan-1-amine] | 81 | – | > 10 | 24 | 79 | 95 | 125 | – | – | –
7 | COc1ccc2cccc(CCN(C)C)c2n1 [Example I-8, 2-(2-methoxyquinolin-8-yl)-N,N-dimethylethan-1-amine] | – | – | – | 8 | – | 87 | – | > 10 | 314 | 24
8 | COc1cnc2cccc(CCN(C)C)c2c1 [Example I-9, 2-(3-methoxyquinolin-5-yl)-N,N-dimethylethan-1-amine] | 39 | 1840 | – | 1 | – | 65 | – | > 10 | 2390 | –
9 | COc1cccc2cccc(CCN(C)C)c12 [Example I-13, 2-(8-methoxynaphthalen-1-yl)-N,N-dimethylethan-1-amine] | 49 | – | > 10 | 5 | 582 | 58 | 138 | – | – | –
10 | COc1cccc(CNCCc2cccc3ccc(OC)cc23)c1 [Example I-17, N-(3-methoxybenzyl)-2-(7-methoxynaphthalen-1-yl)ethan-1-amine] | 84 | 92 | – | – | – | 97 | – | – | 18 | –
11 | CN(C)CCc1cccc2cccc(O)c12 [Example I-21, 8-(2-(dimethylamino)ethyl)naphthalen-1-ol] | 73 | 53 | – | – | 12 | 90 | – | – | – | –
12 | CCN(CC)CCc1cccc2cccc(OC)c12 [Example I-22, N,N-diethyl-2-(8-methoxynaphthalen-1-yl)ethan-1-amine] | 85 | – | > 10 | 34 | 157 | 95 | 457 | – | – | –
13 | CCCN(CCC)CCc1cccc2cccc(OC)c12 [Example I-23, N-(2-(8-methoxynaphthalen-1-yl)ethyl)-N-propylpropan-1-amine] | 93 | 165 | – | 89 | – | 88 | – | 0.103 | 291 | –
14 | COc1cccc2cccc(CCN(C(C)C)C(C)C)c12 [Example I-24, N-isopropyl-N-(2-(8-methoxynaphthalen-1-yl)ethyl)propan-2-amine] | 98 | 1470 | – | 116 | – | 90 | – | 4.7 | 2560 | –
15 | CCN(C)CCc1cccc2cccc(OC)c12 [Example I-25, N-ethyl-2-(8-methoxynaphthalen-1-yl)-N-methylethan-1-amine] | 67 | – | > 10 | 24 | 201 | 84 | 158 | – | – | –
16 | CCN(C)CCc1cccc2cccc(O)c12 [Example I-26, 8-(2-(methyl(ethyl)amino)ethyl)naphthalen-1-ol] | 68 | 41 | – | – | 15 | 86 | – | – | – | –
17 | CCCN(C)CCc1cccc2cccc(OC)c12 [Example I-27, N-(2-(8-methoxynaphthalen-1-yl)ethyl)-N-methylpropan-1-amine] | 86 | – | > 10 | 2 | 211 | 75 | 213 | – | – | –
18 | COc1cccc2cccc(CCN(C)C(C)C)c12 [Example I-28, N-(2-(8-methoxynaphthalen-1-yl)ethyl)-N-methylpropan-2-amine] | 94 | – | > 10 | 46 | 766 | 76 | 191 | – | – | –
19 | CC(C)N(C)CCc1cccc2cccc(O)c12 [Example I-29, 8-(2-(methyl(isopropyl)amino)ethyl)naphthalen-1-ol] | 79 | 36 | – | – | 54 | 84 | – | – | – | –
20 | COc1cccc2cccc(CCN(C)C3CC3)c12 [Example I-30, N-(2-(8-methoxynaphthalen-1-yl)ethyl)-N-methylcyclopropanamine] | 48 | 496 | – | – | – | 60 | – | – | 409 | –
21 | CN(CCc1cccc2cccc(O)c12)C1CC1 [Example I-31, 8-(2-(cyclopropyl(methyl)amino)ethyl)naphthalen-1-ol] | 64 | 60 | – | – | – | 57 | – | – | 123 | –
22 | CN(C)CCc1cccc2ccc(Cl)cc12 [Example I-32, 2-(7-chloronaphthalen-1-yl)-N,N-dimethylethan-1-amine] | 63 | – | – | – | 61 | 87 | 240 | – | – | –
23 | CCN(C)CCc1cccc2ccccc12 [Example I-33, N-ethyl-N-methyl-2-(naphthalen-1-yl)ethan-1-amine] | 58 | – | – | – | 115 | 67 | 204 | – | – | –
24 | CN(C)CCc1cccc2ccc(F)cc12 [Example I-38, 2-(7-fluoronaphthalen-1-yl)-N,N-dimethylethan-1-amine] | 66 | – | – | – | 46 | 83 | 245 | – | – | –
25 | CCN(C)CCc1cccc2ccc(F)cc12 [Example I-39, N-ethyl-2-(7-fluoronaphthalen-1-yl)-N-methylethan-1-amine] | 58 | – | – | – | 33 | 93 | 168 | – | – | –
26 | CC(C)N(C)CCc1cccc2ccc(F)cc12 [Example I-40, N-(2-(7-fluoronaphthalen-1-yl)ethyl)-N-methylpropan-2-amine] | 68 | – | – | – | 120 | 84 | 378 | – | – | –
27 | CN(CCc1cccc2ccc(F)cc12)C1CC1 [Example I-41, N-(2-(7-fluoronaphthalen-1-yl)ethyl)-N-methylcyclopropanamine] | 33 | 1020 | – | – | – | 80 | – | – | 150 | –
28 | COc1cccc2c(CCN(C)C)cccc12 [Example I-50, 2-(5-methoxynaphthalen-1-yl)-N,N-dimethylethan-1-amine] | – | – | – | – | – | – | – | – | – | 28
29 | COc1cccc2c(CCN)cccc12 [Example I-52, 2-(5-methoxynaphthalen-1-yl)ethan-1-amine] | 79 | – | – | – | 289 | 91 | 295 | – | – | –
30 | NCCc1cccc2ccc(F)cc12 [Example I-53, 2-(7-fluoronaphthalen-1-yl)ethan-1-amine] | 83 | – | – | – | 1 | 97 | 34 | – | – | –
